What was measured:
MMP9 = molecular target: T1, MMP9 (Rattus norvegicus, UniProt P50282); test: Western blot of pro and active MMP9 in ankles of rats with SCW-induced arthritis; format: in vivo; conditions: Day 26, four hours after AM dose
T1 construct: Pro and active MMP9 were abundantly present in ankles of SCW-induced vehicle-treated rats; from tissue; host or cells: tibia-tarsus joints (ankles) of female Lewis rats
Method: Hind-limbs were skinned, severed just above the tibia-tarsus joint and below the metatarsals, and the tibia-tarsus joints (ankles) were weighed, snap frozen and pulverized on dry ice using a hammer and anvil. The pulverized tissue was suspended in 3 volumes (w:v) of ice-cold homogenization buffer containing 50 mM Tris pH 7.5, 150 mM NaCl, 5 mM EDTA, 1% Triton X100, 0.05% Brij 30, 10% dimethylsulfoxide and Complete EDTA-free Protease Inhibitor Cocktail (Roche Diagnostics). The suspended tissue was homogenized sequentially with a Kinematica AG Polytron and a Dounce homogenizer. Homogenates were centrifuged at 16,000×g for 10 min at 4° C. and the soluble fractions were saved. Dimethylsulfoxide was removed from a portion of each soluble fraction using PD MiniTrap™ G-25 desalting columns (GE Healthcare). Homogenates (0.25 mL), free of DMSO, were diluted with an equal volume of binding buffer (i.e., homogenization buffer without dimethylsufoxide) and adjusted to contain 50 μL of a 50% slurry of gelatin-conjugated sepharose. Following 2 hours of rotation at 4° C. the beads were washed twice in binding buffer and eluted in 100 μL 2×-reducing Laemmli buffer with heating to 95° C. for 5 minutes. […]

[1] = molecular target: T2, proMMP9 activation to active MMP9 in rat synoviocytes (Rattus norvegicus, UniProt P50282); test: Activation of proMMP9 in rat synoviocyte cultures (Western blot); format: cell-based
T2 construct: endogenous in cells; host or cells: primary synoviocytes from SCW-arthritic female Lewis rats, TNFα-stimulated
T2 sequence (P50282 20-708 limits assumed): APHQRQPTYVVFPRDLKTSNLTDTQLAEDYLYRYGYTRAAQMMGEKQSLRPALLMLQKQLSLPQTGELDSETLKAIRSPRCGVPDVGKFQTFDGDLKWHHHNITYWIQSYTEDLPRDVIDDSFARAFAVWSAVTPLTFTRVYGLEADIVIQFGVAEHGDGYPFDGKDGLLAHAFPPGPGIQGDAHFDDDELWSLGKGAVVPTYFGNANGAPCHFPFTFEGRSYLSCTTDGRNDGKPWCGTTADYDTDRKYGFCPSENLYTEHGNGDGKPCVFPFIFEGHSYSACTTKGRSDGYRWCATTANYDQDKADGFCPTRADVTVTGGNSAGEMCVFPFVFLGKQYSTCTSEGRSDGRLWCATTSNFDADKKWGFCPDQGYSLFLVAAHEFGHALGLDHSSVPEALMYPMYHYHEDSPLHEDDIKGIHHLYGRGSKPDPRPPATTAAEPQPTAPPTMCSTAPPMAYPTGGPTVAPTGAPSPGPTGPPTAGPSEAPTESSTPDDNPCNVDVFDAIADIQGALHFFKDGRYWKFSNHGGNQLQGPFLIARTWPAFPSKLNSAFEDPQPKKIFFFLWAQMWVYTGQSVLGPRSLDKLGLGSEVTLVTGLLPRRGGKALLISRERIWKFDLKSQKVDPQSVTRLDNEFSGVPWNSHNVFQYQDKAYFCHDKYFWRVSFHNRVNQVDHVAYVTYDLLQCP
From the text: Activation of proMMP9 in Rat Synoviocyte Cultures
A primary synoviocytes line was derived from the periarticular tissue of arthritic rats. Arthritis was induced in female Lewis rats following an i.p. administration of streptococcal cell wall peptidoglycan polysaccharides (J Exp Med 1977; 146:1585-1602). Rats with established arthritis were sacrificed, and hind-limbs were severed, immersed briefly in 70% ethanol, and placed in a sterile hood. The skin was removed and the inflamed tissue surrounding the tibia-tarsal joint was harvested using a scalpel. Tissue from six rats was pooled, minced to approximately 8 mm^3 pieces, and cultured in Dulbecco's Modified Eagle's Medium (DMEM) containing 15% fetal calf serum (FCS). In the following weeks, cells migrated out of the tissue piece, proliferated, and formed a monolayer of adherent cells. The synoviocytes were lifted from culture plates with 0.05% trypsin and passaged weekly at 1:4 ratios in DMEM containing 10% FCS. Synoviocytes were used at passage 9 to investigate the ability of Compound-α to inhibit the maturation of MMP9 to active form.
Rat synoviocytes spontaneously expressed and activated MMP9 when cultured in collagen gels and stimulated with tumor necrosis factor-alpha (TNFα) (FIG. 1 and Table 3). Eight volumes of an ice-cold solution of 3.8 mg/mL rat tail collagen (Sigma Cat #C3867-1VL) were mixed with 1 volume of 1 M sodium bicarbonate and 1 volume of 10× Roswell Park Memorial Institute medium. The pH of the mixture was adjusted to pH 7 with 1 N sodium hydroxide and equal volumes of the pH-adjusted collagen solution were mixed with DMEM containing 0.8 million synoviocytes per mL. One half mL volumes were dispensed into Costar 24-well culture dishes and placed for one hr at 37° C. and 5% CO2, during which time the collagen solution formed a gel. Individual gels were dislodged into wells of 12-well Costar plates containing 1 mL/well of DMEM adjusted to contain 0.05% BSA and 100 ng/mL mouse TNFα (R&D Systems Cat #410-MT-010). […] After overnight culture at 37° C. and 5% CO2, wells were adjusted to contain an additional 0.5 mL of DMEM containing 0.05% BSA and Compound-α at 4× the final desired concentration (final culture volumes were 2 mL). The plates were cultured an additional 48 hrs, at which time 1 mL of conditioned media were harvested into fresh eppendorf tubes containing 40 μL/mL of a 50% slurry of gelatin-conjugated sepharose (GE Healthcare Cat #17-0956-01). Samples were rotated for 2 hrs at 4° C. before centrifugation 1 min×200 g. Supernatants were discarded. The gelatin-sepharose pellets were washed once with 1 mL of ice cold DMEM, resuspended in 50 μL of 2× reducing Leamli buffer and heated 5 min at 95° C. Fifteen μL of eluted proteins were resolved on 4-12% NuPAGE gels and transferred to 0.45 μm pore-sized nitrocellose blots. Next, blots were incubated in blocking buffer (5% milk in Tris-buffered saline containing 0.1% Tween-20) for 1 hr at RT and probed overnight (4° C.) with blocking buffer containing 1 μg/mL primary antibodies. Blots were next probed 1 hr at RT with 1/10,000 dilutions of goat anti-mouse IgG-HRP or goat anti-rabbit IgG-HRP (Santa Cruz) in blocking buffer and developed using SuperSignal® West Fempto Maximum Sensitivity Substrate. Chemiluminesence signal was analyzed using a ChemiDoc imaging system (BioRad Laboratories) and Quantity One® image software. Electrophoretic mobility was estimated based on the mobility of standards (Novex Sharp Pre-Stained Protein Standards P/N 57318). […]

T1 sequence (P50282 108-708): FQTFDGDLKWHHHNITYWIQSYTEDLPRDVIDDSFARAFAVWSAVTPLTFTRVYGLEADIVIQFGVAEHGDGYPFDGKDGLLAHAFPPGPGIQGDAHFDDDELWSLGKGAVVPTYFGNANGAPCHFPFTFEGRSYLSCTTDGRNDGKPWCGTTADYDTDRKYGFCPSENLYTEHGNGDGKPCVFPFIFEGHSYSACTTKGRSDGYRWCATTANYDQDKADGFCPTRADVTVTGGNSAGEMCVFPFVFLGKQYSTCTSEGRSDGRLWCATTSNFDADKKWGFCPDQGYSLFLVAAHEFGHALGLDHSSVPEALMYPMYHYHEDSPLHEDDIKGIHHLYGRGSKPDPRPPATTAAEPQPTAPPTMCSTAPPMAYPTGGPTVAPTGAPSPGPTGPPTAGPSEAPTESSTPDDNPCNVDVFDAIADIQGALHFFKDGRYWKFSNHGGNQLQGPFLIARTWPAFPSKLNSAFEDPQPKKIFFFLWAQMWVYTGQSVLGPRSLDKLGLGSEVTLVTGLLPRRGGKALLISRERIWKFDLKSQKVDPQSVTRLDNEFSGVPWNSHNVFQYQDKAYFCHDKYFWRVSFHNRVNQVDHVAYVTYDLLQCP

Question: `Cc1nc(C)c(-c2csc(Nc3cc(S(N)(=O)=O)ccc3OC(C)C)n2)s1` [Compound α, 3-(2′,4′-Dimethyl-[4,5′]bithiazolyl-2-ylamino)-4-isopropoxy-benzenesulfonamide.HBr] was tested. Which “effect on abundance of proMMP9 in ankles” value (MMP9; mAb-L51/82) did it give?
Answer: did not reduce the abundance of proMMP-9

Question: What about the “effect on abundance of proMMP9 in ankles” value (MMP9; mAb-L51/82, listed as Compound-α) of the same compound?
Answer: did not reduce the abundance of proMMP9

Question: What about the inhibition at 0.37 µM ([1]; 0.37 μM Compound-α, 80 kD active MMP9, pAb-1246) of the same compound?
Answer: 12%

Question: What about the inhibition at 1.1 µM ([1]; 1.1 μM Compound-α, 80 kD active MMP9, pAb-1246) of the same compound?
Answer: 46%

Question: And the inhibition at 3.3 µM ([1]; 3.3 μM Compound-α, 80 kD active MMP9, pAb-1246)?
Answer: 86%

Question: What about the inhibition at 10 µM ([1]; 10 μM Compound-α, 80 kD active MMP9, pAb-1246) of the same compound?
Answer: 97%

Question: And the IC50 ([1]; rat synoviocytes, pAb-1246 band chemiluminescence, read-out: IC50 for inhibition of production of active MMP9)?
Answer: ~1100 nM
